Results: PubChem BioAssay AID2060909 (Molecular Pharmacology Branch, DTP, NCI, 2025)

Test system: 362531-283-R-J2-PDC complex spheroid viability
Assay: Anticancer human tumor 362531-283-R-J2-PDC patient-derived colon adenocarcinoma cell line growth inhibition [RAS]
Conditions: for IC50: curve of first compound; for viability, T/C: stronger effect = lower value; active = viability on the fitted dose curve at most 10% of control; inactive = the rest
From the text: RAS pathway inhibitors in Combinations in Complex Spheroids
A high-throughput screen of multi-cell type tumor spheroids was designed to identify active combinations of RAS pathway inhibitors and targeted small molecules. Complex spheroids include a stromal component modeled by human endothelial cells (HUVEC) and fibroblasts modeled by human mesenchymal stem cells (MSCs). The concentration ranges selected for each drug and investigational agent were based upon clinically achievable concentrations if the clinical Cmax of the agent was known.
Compounds. The drugs and investigational agents: abemaciclib (NSC768073), cobimetinib (NSC768068), divarasib (GDC6063, NSC841802), docetaxel (NSC628503), GDC-1971 (RLY-1971, NSC841576), gemcitabine (NSC613327), inavolisib (NSC800729), ipatasertib (NSC767898), KB-0742 (NSC834161), MRTX-1133 (NSC836407), osimertinib (NSC779217), RMC-4630 (NSC839698), RMC-6236 (NSC851965), RMC-6291 (NSC852671), Ro-3306 (NSC812927), sapanisertib (NSC764658), SN-38 (NSC673596), staurosporine (NSC755774), SY5609 (NSC837396), and tovorafenib (DAY101, NSC766906), were obtained from the National Cancer Institute (NCI) Developmental Therapeutics Program Chemical Repository. The FDA-approved anticancer drug set is available from the NCI Developmental Therapeutics Program. […] The stock solutions were prepared in dimethyl sulfoxide (DMSO, Sigma-Aldrich, St. Louis, MO, cat. D2650) at 800-fold the tested concentration and stored at -70 degrees C prior to their use. All drugs and investigational agents were tested over a range starting from a high concentration at or near the clinical Cmax and decreasing in half-log increments. If the clinical Cmax for an agent had not been determined, the highest concentration tested was 10 microM.
Cell Culture. All cells were maintained in an incubator at 37 degrees C and 5% CO2 with 95% humidity. The PDC lines were cultured according to standard operating procedures established by the NCI PDMR. All PDCs were thawed and cultured in Matrigel-coated flasks prepared with a working solution of 1X Ham's F-12 nutrient mix, without supplementation (Invitrogen, Waltham, MA, cat. 11765054), 100 U/mL penicillin-streptomycin (Invitrogen, cat. 15140122), and 2.5% Matrigel (Corning Inc., Corning, NY, cat. 354248) for the first three passages. The 362531-283-R-J2-PDC and 782815-120-R-J1-PDC lines were cultured in 6C/Colon 1B media, which includes advanced DMEM/F-12 (Thermo Fisher Scientific, cat. 12634028), 10 mM HEPES (Thermo Fisher Scientific, cat. 15630080), 1X GlutaMAX supplement (Thermo Fisher Scientific, cat. 35050061), 0.1 mg/mL primocin (InvivoGen, San Diego, CA, cat. ant-pm-2), 10% defined fetal bovine serum, heat inactivated (HyClone Laboratories Inc., Logan, UT, cat. SH30070.03HI), 50% L-WRN conditioned media (ATCC, cat. CRL-3276), 1.25 mM N-Acetyl-L-cysteine (Sigma-Aldrich, cat. A9165), 10 mM nicotinamide (Sigma-Aldrich, cat. N0636), 1X B-27 supplement (Thermo Fisher Scientific, cat. 17504044), 1X N-2 supplement (Thermo Fisher Scientific, cat. 17502048), 50 ng/mL human EGF (Thermo Fisher Scientific, cat. PHG0311), and 10 microM Y-27632 dihydrochloride (Tocris Bioscience, cat. 1254). The K12877-001-R-J1-PDC line was cultured in 6I media, which includes all 6C/Colon 1B media plus 10 ng/mL human FGF-10 (PeproTech, cat. 100-26), 1 ng/mL human FGF-2 (PeproTech, cat. 100-18B), 1 µM prostaglandin E2 (Tocris Bioscience, cat. 2296), […] hydrocortisone (Sigma-Aldrich, cat. H4001), and […] bovine insulin (Sigma-Aldrich, cat. I6634). The K86415-001-R-J1-PDC line was cultured in 6D media, which includes all 6C/Colon 1B media components minus the L-WRN conditioned media. The 485176-168-R4-J1-PDC was cultured in PANC media, which includes all 6C/Colon 1B media plus 100 ng/mL human FGF-10 (PeproTech, cat. 100-26), 500 nM SB-431542 (Selleckchem, cat. S1067), and 10 nM gastrin (Tocris Bioscience, cat. 3006). […]
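Note: spheroids exposed to the agents for 7 days before readout.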
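Throughout, for viability, T/C: luminescence viability as percent of DMSO vehicle control wells.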

CC(=O)OC12COC1CC(O)C1(C)C(=O)C(O)C3=C(C)C(OC(=O)C(O)C(NC(=O)OC(C)(C)C)c4ccccc4)CC(O)(C(OC(=O)c4ccccc4)C21)C3(C)C (centres undefined) + C=CC(=O)N1CCN(c2nc(OCC3CCCN3C)nc3c(F)c(-c4nc(N)cc(C)c4C(F)(F)F)c(Cl)cc23)C(C)C1
211 nM: IC50 (second compound 0.1 µM)
219 nM: IC50 (second compound 1 µM)
206 nM: IC50 (second compound 0.00316 µM)
212 nM: IC50 (second compound 0.0316 µM)
207 nM: IC50 (second compound 0.01 µM)
194 nM: IC50 (second compound 0.316 µM)
inactive: viability, T/C (second compound 0.00316 µM, first compound 0.0316 µM) 96.7% | viability, T/C (second compound 0.00316 µM, first compound 0.1 µM) 87.7% | viability, T/C (second compound 0.00316 µM, first compound 0.316 µM) 24.6% | viability, T/C (second compound 0.00316 µM, first compound 1 µM) 20.6% | viability, T/C (second compound 0.00316 µM, first compound 3.16 µM) 25.6% | viability, T/C (second compound 0.00316 µM, first compound 10 µM) 39.1% | viability, T/C (second compound 0.01 µM, first compound 0.0316 µM) 106% | viability, T/C (second compound 0.01 µM, first compound 0.1 µM) 87.8% | viability, T/C (second compound 0.01 µM, first compound 0.316 µM) 24.2% | viability, T/C (second compound 0.01 µM, first compound 1 µM) 22.8% | viability, T/C (second compound 0.01 µM, first compound 3.16 µM) 25.5% | viability, T/C (second compound 0.01 µM, first compound 10 µM) 39.8% | viability, T/C (second compound 0.0316 µM, first compound 0.0316 µM) 99.4% | viability, T/C (second compound 0.0316 µM, first compound 0.1 µM) 94.3% | viability, T/C (second compound 0.0316 µM, first compound 0.316 µM) 21.5% | viability, T/C (second compound 0.0316 µM, first compound 1 µM) 22.2% | viability, T/C (second compound 0.0316 µM, first compound 3.16 µM) 25.2% | viability, T/C (second compound 0.0316 µM, first compound 10 µM) 37.3% | viability, T/C (second compound 0.1 µM, first compound 0.0316 µM) 97.4% | viability, T/C (second compound 0.1 µM, first compound 0.1 µM) 89.1% | viability, T/C (second compound 0.1 µM, first compound 0.316 µM) 27% | viability, T/C (second compound 0.1 µM, first compound 1 µM) 20.1% | viability, T/C (second compound 0.1 µM, first compound 3.16 µM) 27.3% | viability, T/C (second compound 0.1 µM, first compound 10 µM) 40.2% | viability, T/C (second compound 0.316 µM, first compound 0.0316 µM) 107% | viability, T/C (second compound 0.316 µM, first compound 0.1 µM) 76.4% | viability, T/C (second compound 0.316 µM, first compound 0.316 µM) 25.3% | viability, T/C (second compound 0.316 µM, first compound 1 µM) 18% | viability, T/C (second compound 0.316 µM, first compound 3.16 µM) 34.6% | viability, T/C (second compound 0.316 µM, first compound 10 µM) 44.1% | viability, T/C (second compound 1 µM, first compound 0.0316 µM) 106% | viability, T/C (second compound 1 µM, first compound 0.1 µM) 86.4% | viability, T/C (second compound 1 µM, first compound 0.316 µM) 27.3% | viability, T/C (second compound 1 µM, first compound 1 µM) 23.4% | viability, T/C (second compound 1 µM, first compound 3.16 µM) 35.1% | viability, T/C (second compound 1 µM, first compound 10 µM) 45.5%

CC(=O)OC12COC1CC(O)C1(C)C(=O)C(O)C3=C(C)C(OC(=O)C(O)C(NC(=O)OC(C)(C)C)c4ccccc4)CC(O)(C(OC(=O)c4ccccc4)C21)C3(C)C (centres undefined) + CCn1c(-c2cccnc2C(C)OC)c2c3cc(ccc31)N1CCOC(CC(NC(=O)C(C(C)C)N(C)C(=O)C3(F)CCN(C(=O)C#CC(C)(C)N(C)C)CC3)C(=O)N3CCCC(N3)C(=O)OCC(C)(C)C2)C1
243 nM: IC50 (second compound 0.03 µM)
235 nM: IC50 (second compound 0.003 µM)
inactive: viability, T/C (second compound 0.000949 µM, first compound 0.0316 µM) 98.1% | viability, T/C (second compound 0.000949 µM, first compound 0.1 µM) 97.4% | viability, T/C (second compound 0.000949 µM, first compound 0.316 µM) 33.3% | viability, T/C (second compound 0.000949 µM, first compound 1 µM) 19.5% | viability, T/C (second compound 0.000949 µM, first compound 3.16 µM) 23.1% | viability, T/C (second compound 0.000949 µM, first compound 10 µM) 38.4% | viability, T/C (second compound 0.003 µM, first compound 0.0316 µM) 102% | viability, T/C (second compound 0.003 µM, first compound 0.1 µM) 94.6% | viability, T/C (second compound 0.003 µM, first compound 0.316 µM) 34.7% | viability, T/C (second compound 0.003 µM, first compound 1 µM) 16.6% | viability, T/C (second compound 0.003 µM, first compound 3.16 µM) 24.5% | viability, T/C (second compound 0.003 µM, first compound 10 µM) 38.4% | viability, T/C (second compound 0.00949 µM, first compound 0.0316 µM) 101% | viability, T/C (second compound 0.00949 µM, first compound 0.1 µM) 95.4% | viability, T/C (second compound 0.00949 µM, first compound 0.316 µM) 31.1% | viability, T/C (second compound 0.00949 µM, first compound 1 µM) 20% | viability, T/C (second compound 0.00949 µM, first compound 3.16 µM) 26% | viability, T/C (second compound 0.00949 µM, first compound 10 µM) 36.1% | viability, T/C (second compound 0.03 µM, first compound 0.0316 µM) 93% | viability, T/C (second compound 0.03 µM, first compound 0.1 µM) 98% | viability, T/C (second compound 0.03 µM, first compound 0.316 µM) 36.5% | viability, T/C (second compound 0.03 µM, first compound 1 µM) 17.7% | viability, T/C (second compound 0.03 µM, first compound 3.16 µM) 29.2% | viability, T/C (second compound 0.03 µM, first compound 10 µM) 34.1% | viability, T/C (second compound 0.0949 µM, first compound 0.0316 µM) 95.2% | viability, T/C (second compound 0.0949 µM, first compound 0.1 µM) 92.7% | viability, T/C (second compound 0.0949 µM, first compound 0.316 µM) 34.8% | viability, T/C (second compound 0.0949 µM, first compound 1 µM) 19% | viability, T/C (second compound 0.0949 µM, first compound 3.16 µM) 24.2% | viability, T/C (second compound 0.0949 µM, first compound 10 µM) 31.7% | viability, T/C (second compound 0.3 µM, first compound 0.0316 µM) 105% | viability, T/C (second compound 0.3 µM, first compound 0.1 µM) 96.6% | viability, T/C (second compound 0.3 µM, first compound 0.316 µM) 31.9% | viability, T/C (second compound 0.3 µM, first compound 1 µM) 18.9% | viability, T/C (second compound 0.3 µM, first compound 3.16 µM) 22.5% | viability, T/C (second compound 0.3 µM, first compound 10 µM) 28.3%
229 nM: IC50 (second compound 0.3 µM)
225 nM: IC50 (second compound 0.00949 µM)
234 nM: IC50 (second compound 0.000949 µM) | IC50 (second compound 0.0949 µM)
